From US10344060B2 (priority 2013, dated 2019) come the findings set out here.

Data set [1] concerns TTX-sensitive Nav channels in Sprague Dawley rat DRG neuron.
Data set [2] deals with TTX-sensitive Nav channels in mouse DRG neuron.
Data set [3] in a line: in vivo. The conditions noted are these: female, Sprague-Dawley, rat, sc.
The target in another data set is hNav1.6 (Homo sapiens, UniProt Q9UQD0). The data set is described as follows: cell-based. It is filed as cell-based. To be noted: Table 15; for Nav1.6/Nav1.7: ratio of PX tonic IC50 values; for pIC50: read-out: PX hNav1.6 Tonic IC50.
hNav1.6, sequence (Q9UQD0 whole entry): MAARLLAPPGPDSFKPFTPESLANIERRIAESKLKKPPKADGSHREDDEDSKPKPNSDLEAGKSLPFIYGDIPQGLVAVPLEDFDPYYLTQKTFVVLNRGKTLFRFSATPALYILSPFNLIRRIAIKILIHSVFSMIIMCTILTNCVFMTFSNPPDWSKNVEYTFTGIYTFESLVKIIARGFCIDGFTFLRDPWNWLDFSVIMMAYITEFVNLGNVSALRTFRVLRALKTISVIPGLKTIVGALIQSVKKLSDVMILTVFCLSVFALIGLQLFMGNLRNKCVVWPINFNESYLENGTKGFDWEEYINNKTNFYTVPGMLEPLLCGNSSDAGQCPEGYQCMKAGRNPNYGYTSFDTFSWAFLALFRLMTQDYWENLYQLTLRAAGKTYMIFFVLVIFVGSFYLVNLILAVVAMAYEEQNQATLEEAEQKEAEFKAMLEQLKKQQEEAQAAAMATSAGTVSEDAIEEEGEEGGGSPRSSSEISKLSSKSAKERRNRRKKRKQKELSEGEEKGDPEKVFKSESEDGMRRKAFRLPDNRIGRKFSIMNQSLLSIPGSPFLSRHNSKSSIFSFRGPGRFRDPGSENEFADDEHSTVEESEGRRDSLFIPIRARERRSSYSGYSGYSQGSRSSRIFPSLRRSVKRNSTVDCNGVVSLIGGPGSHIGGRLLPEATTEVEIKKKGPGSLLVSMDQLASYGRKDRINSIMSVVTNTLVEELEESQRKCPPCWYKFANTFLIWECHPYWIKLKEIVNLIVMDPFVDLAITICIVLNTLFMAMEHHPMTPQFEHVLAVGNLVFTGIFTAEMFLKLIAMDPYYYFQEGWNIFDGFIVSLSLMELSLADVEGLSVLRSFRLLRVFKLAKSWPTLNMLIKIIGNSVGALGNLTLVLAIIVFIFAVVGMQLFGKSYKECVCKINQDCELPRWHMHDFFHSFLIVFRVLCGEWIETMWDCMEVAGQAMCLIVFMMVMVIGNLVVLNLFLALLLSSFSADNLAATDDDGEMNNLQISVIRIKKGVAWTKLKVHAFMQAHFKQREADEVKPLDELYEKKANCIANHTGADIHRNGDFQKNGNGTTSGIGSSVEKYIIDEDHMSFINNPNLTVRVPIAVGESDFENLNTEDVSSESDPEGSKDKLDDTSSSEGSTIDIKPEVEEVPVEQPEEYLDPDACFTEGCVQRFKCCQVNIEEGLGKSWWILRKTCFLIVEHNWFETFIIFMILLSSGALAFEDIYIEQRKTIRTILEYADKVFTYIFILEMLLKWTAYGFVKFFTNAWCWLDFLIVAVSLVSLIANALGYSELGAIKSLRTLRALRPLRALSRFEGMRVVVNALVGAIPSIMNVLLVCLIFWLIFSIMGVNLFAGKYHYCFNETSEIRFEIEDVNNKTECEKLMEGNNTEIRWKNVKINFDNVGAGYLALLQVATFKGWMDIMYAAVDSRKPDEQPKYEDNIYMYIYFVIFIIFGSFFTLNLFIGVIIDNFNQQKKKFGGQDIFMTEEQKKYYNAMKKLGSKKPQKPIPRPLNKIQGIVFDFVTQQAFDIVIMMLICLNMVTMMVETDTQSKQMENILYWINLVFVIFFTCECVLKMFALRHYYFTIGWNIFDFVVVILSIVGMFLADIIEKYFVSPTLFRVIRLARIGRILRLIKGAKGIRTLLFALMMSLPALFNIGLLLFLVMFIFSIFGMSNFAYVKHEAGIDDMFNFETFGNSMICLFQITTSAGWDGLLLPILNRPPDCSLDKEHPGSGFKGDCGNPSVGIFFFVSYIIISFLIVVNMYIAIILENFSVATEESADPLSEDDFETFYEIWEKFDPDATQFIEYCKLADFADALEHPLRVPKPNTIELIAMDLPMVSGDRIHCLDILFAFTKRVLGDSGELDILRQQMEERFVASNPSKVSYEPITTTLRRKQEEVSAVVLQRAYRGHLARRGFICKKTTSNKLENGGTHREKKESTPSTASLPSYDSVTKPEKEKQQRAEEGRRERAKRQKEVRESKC
Data set [4] concerns the target T1, hNav1.7 (Homo sapiens, UniProt Q15858). Briefly: cell-based. It is filed as cell-based. The conditions noted are these: read-out: PX hNav1.7 Tonic IC50.
The target of a further data set is hNav1.5 (Homo sapiens, UniProt Q14524). The data set is described as follows: cell-based. The conditions noted are these: Table 12; ratio of PX tonic IC50 values.
The conditions of data set [5]: CD-1 male mouse, 2 mg/kg s.c.
Data set [6] is described as follows: in vivo. To be noted: male, CD-1, mouse, sc, 2 mg/kg.
The conditions of data set [7]: for mean Cmax over the rat DRG Nav1.7: Sprague-Dawley rats.
Data set [8] concerns the target T1, hNav1.7. Briefly: cell-based. It counts as cell-based.
The next data set concerns the target hNav1.4 (Homo sapiens, UniProt P35499). The data set is described as follows: cell-based. The conditions noted are these: Table 12. It is filed as cell-based.
The subject of the next data set is male CD-1 mice. To be noted: mouse, in vivo.

pIC50: −log10 of the molar value. Read-outs that look alike come from different tables or passages of the source.

T1 sequence (Q15858 whole entry): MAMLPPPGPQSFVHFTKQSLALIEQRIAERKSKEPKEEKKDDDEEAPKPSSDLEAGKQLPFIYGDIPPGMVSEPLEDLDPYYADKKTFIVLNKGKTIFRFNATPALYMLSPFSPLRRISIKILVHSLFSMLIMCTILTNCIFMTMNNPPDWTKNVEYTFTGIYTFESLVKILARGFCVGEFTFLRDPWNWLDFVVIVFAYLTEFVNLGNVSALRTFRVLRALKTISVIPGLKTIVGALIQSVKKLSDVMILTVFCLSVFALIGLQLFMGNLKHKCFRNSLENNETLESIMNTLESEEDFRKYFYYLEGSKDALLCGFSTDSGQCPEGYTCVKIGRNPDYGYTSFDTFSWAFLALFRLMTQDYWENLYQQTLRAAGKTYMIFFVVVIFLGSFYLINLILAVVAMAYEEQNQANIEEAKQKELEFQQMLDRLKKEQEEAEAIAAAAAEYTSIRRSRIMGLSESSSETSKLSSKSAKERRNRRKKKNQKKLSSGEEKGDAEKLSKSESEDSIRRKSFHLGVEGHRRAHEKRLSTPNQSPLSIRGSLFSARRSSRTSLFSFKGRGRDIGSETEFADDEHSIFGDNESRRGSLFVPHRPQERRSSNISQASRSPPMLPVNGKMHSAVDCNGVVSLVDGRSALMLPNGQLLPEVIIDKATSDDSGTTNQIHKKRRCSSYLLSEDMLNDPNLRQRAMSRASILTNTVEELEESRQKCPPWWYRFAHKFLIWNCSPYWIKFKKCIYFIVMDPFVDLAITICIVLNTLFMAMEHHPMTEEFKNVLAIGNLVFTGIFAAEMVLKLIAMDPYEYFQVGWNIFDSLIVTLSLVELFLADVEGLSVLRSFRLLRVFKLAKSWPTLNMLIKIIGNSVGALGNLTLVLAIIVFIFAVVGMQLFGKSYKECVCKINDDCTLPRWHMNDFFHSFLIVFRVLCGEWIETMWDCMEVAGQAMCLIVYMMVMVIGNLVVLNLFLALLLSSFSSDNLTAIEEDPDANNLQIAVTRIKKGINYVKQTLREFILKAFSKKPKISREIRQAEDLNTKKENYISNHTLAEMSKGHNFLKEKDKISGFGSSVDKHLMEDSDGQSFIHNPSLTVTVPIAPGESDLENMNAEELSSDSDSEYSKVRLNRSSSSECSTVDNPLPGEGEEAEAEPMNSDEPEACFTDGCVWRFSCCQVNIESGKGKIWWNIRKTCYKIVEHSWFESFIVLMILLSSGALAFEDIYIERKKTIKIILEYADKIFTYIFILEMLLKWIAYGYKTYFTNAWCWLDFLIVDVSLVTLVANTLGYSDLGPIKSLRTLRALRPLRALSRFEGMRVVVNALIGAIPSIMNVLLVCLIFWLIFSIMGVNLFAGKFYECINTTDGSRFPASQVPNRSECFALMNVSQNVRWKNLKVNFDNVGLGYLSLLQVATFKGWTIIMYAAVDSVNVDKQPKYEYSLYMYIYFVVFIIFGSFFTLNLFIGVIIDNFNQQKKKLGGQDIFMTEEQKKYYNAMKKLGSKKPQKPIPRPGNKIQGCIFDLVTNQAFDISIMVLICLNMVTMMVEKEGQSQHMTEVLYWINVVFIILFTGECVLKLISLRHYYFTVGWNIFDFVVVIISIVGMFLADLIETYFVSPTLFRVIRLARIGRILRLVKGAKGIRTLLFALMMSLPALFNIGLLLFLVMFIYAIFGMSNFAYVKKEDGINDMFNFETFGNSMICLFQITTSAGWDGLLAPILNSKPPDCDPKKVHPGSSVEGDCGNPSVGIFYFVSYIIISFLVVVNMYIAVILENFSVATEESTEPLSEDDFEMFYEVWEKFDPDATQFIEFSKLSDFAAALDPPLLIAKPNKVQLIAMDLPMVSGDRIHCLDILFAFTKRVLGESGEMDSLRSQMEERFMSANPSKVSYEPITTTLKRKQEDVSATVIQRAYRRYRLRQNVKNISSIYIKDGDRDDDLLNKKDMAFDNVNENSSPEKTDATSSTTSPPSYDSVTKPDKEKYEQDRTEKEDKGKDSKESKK

On to `C#CC[C@@H]1NC(=O)[C@@H]2CSSC[C@H](NC(=O)[C@H](Cc3ccc(O)cc3)NC(=O)[C@@H](N)CC#N)C(=O)N[C@@H](CCC(N)=O)C(=O)N[C@@H](CCCCN)C(=O)N[C@@H](Cc3c[nH]c4ccccc34)C(=O)N[C@@H](CCCC)C(=O)N[C@@H](Cc3c[nH]c4ccccc34)C(=O)N[C@@H]([C@@H](C)O)C(=O)N[C@H]3CSSC[C@H](NC(=O)[C@H](CCCNC(=N)N)NC(=O)[C@H](CC(C)C)NC(=O)CNC1=O)C(=O)N[C@@H](CCCCN)C(=O)N[C@@H](CC(C)C)C(=O)N[C@@H](Cc1c[nH]c4ccccc14)C(=O)N[C@H](C(=O)N[C@@H](CCCNC(=N)N)C(=O)N[C@@H](CCCCN)C(=O)N[C@@H](CCC(=O)O)C(=O)N[C@H](C(N)=O)[C@@H](C)CC)CSSC[C@H](NC(=O)[C@H](C)NC(=O)[C@H](CCCNC(=N)N)NC(=O)[C@H](CCCCN)NC(=O)[C@H](CO)NC(=O)[C@H](CC(=O)O)NC3=O)C(=O)N2` [CyA-[Nle6,Glu28]JzTx-V(1-29)], for which the negative logarithm of the IC50 (pIC50) (usually −log10 of the IC50, conventionally taken in molar units) in data set [1] was 8.03.
`C#CC[C@@H]1NC(=O)[C@@H]2CSSC[C@H](NC(=O)[C@H](Cc3ccc(O)cc3)NC(=O)[C@@H](N)CC#N)C(=O)N[C@@H](CCC(N)=O)C(=O)N[C@@H](CCCCN)C(=O)N[C@@H](Cc3c[nH]c4ccccc34)C(=O)N[C@@H](CCCC)C(=O)N[C@@H](Cc3c[nH]c4ccccc34)C(=O)N[C@@H]([C@@H](C)O)C(=O)N[C@H]3CSSC[C@H](NC(=O)[C@H](CCCNC(=N)N)NC(=O)[C@H](CC(C)C)NC(=O)CNC1=O)C(=O)N[C@@H](CCCCN)C(=O)N[C@@H](CC(C)C)C(=O)N[C@@H](Cc1c[nH]c4ccccc14)C(=O)N[C@H](C(=O)N[C@@H](CCCNC(=N)N)C(=O)N[C@@H](CCCCN)C(=O)N[C@@H](CCC(=O)O)C(=O)N[C@H](C(N)=O)[C@@H](C)CC)CSSC[C@H](NC(=O)[C@H](C)NC(=O)[C@H](CCCNC(=N)N)NC(=O)[C@H](CCCCN)NC(=O)[C@H](CO)NC(=O)[C@H](CC(=O)O)NC3=O)C(=O)N2` [compound 395]: the pIC50 is 7.80 in data set [2], 8.03 in data set [1], 7.14 at hNav1.6 and 9.11 at hNav1.7 [4] (Table 15). Also, the “potency relative to wild type peptide, in words” value in data set [2] (TTX-sensitive current in mouse DRG neurons) was “equipotent”. Also, the Cmax (in general, the highest concentration seen after dosing) turned out to be 79 nM in the data set “in vivo [3]” (1 mg/kg), 430 nM in the data set “in vivo [3]” (3 mg/kg), 970 nM in “in vivo [3]” (10 mg/kg) and 730 nM in the data set “in vivo [6]”. Further, the results for the time of peak concentration (Tmax) in “in vivo [3]” (1 mg/kg), in the data set “in vivo [3]” (3 mg/kg) and in the data set “in vivo [3]” (10 mg/kg) were 1 h, 3 h and 3 h, respectively. The Nav1.6/Nav1.7 at hNav1.6 was 94. For the same compound, at hNav1.5, the Nav1.5/Nav1.7 was determined as 256. The “mean Cmax over the mouse DRG Nav1.7 IC50” value in [5] worked out at 46 fold. Moreover, the half-life (commonly how long it takes for the measured level to halve) in “in vivo [6]” was about 2.3 h. Further, the “mean Cmax over the rat DRG Nav1.7” value in [7] (1 mg/kg s.c.) is 56 fold; in data set [7] (3 mg/kg s.c.), 306 fold; in [7] (10 mg/kg s.c.), 684 fold. Besides, in [7] (Sprague-Dawley rats, 1, 3 or 10 mg/kg single s.c. administration), the tolerability result is reported as “All the doses were tolerated”.
Consider `C#CC[C@H](N)C(=O)N[C@@H](Cc1ccc(O)cc1)C(=O)N[C@H]1CSSC[C@@H]2NC(=O)[C@@H]3CSSC[C@@H](C(=O)N[C@@H](CCCNC(=N)N)C(=O)N[C@@H](CCCCN)C(=O)N[C@@H](CCC(=O)O)C(=O)N[C@H](C(N)=O)[C@@H](C)CC)NC(=O)[C@H](Cc4c[nH]c5ccc(Br)cc45)NC(=O)[C@H](CC(C)C)NC(=O)[C@H](CCCCN)NC(=O)[C@H](CSSC[C@H](NC(=O)[C@H]([C@@H](C)O)NC(=O)[C@H](Cc4c[nH]c5ccccc45)NC(=O)[C@H](CCCC)NC(=O)[C@H](Cc4c[nH]c5ccccc45)NC(=O)[C@H](CCCCN)NC(=O)[C@H](CCC(N)=O)NC1=O)C(=O)N[C@@H](CC(=O)O)C(=O)N[C@@H](CO)C(=O)N[C@@H](CCCCN)C(=O)N[C@@H](CCCNC(=N)N)C(=O)N[C@@H](C)C(=O)N3)NC(=O)[C@H](CCCNC(=N)N)NC(=O)[C@H](CC(C)C)NC(=O)CNC(=O)[C@H](CCC(=O)O)NC2=O` [compound 858], for which the pIC50 in data set [2] was 8.42; at hNav1.7 [8] (WCPC, partially inactivated, hNav1.7, n=2, read-out: Mean IC50), 9.89; at hNav1.6, 7.31; on hNav1.7 [4] (Table 12, PatchXpress, tonic block), 10.41; at hNav1.7 [4] (Table 15), 10.23; on hNav1.4 (PatchXpress, tonic block, read-out: PX hNav1.4 Tonic IC50), 7.39. Further, in data set [2] (30 nM, C57 Black 6 mouse DRG neuron), the “block of TTX-sensitive Nav current, in words” value was “blocks most of TTX-sensitive Nav current”. The “potency on TTX-S current in mDRG neurons, in words” value in [2] (manual patch clamp) is on record as “single digit-nanomolar inhibitor”. This compound also gave a 1.x/1.7 in data set [2] (partially inactivated, mTTX-S / hNav1.7) of 29. The “block of hNav1.7 current” value on hNav1.7 [8] (100 nM) is “approximately 90%”. For the same compound, the “potency against hNav1.7, in words” value at hNav1.7 [8] (manual WCPC) was “sub-nanomolar potent inhibitor”. Also, the Nav1.6/Nav1.7 on hNav1.6 amounted to 829. The Nav1.4/Nav1.7 at hNav1.4 (ratio of PX tonic IC50 values) is recorded as 1036.
Take `Cc1cccc(C)c1OCC(C)N` (centres unmarked) [mexilitine, reference compound]: the “reversal of thermal hyperalgesia, positive control” value in the data set with male CD-1 mice was “sufficient to significantly reverse thermal hyperalgesia”.
